In patent publication US20020150629A1, “Zinc-supplementary compositions for oral administration” (priority 2000, published 2002):

Experiment: Bioavailability of zinc after administration to the duodenum of rats (plasma zinc AUC vs intravenous zinc acetate)
Details: for absorption promoting action (in words): 10 mg/kg
Experimental: Wistar rats of 8 weeks age were used in this experiment. The rats were fasted for 24 hours before administration of zinc acetate alone, a mixture of zinc acetate and a dipeptide listed in Table 1 at a molar ratio of dipeptide to zinc of 1:1, or a complex of zinc and L- or D-carnosine at a molar ratio of dipeptide to complex of 1:1. Each test composition was administered to the duodenum of ether-anesthetized rat as a solution or suspension in physiological saline. The dose of the composition was 10 mg/kg body weight as zinc in each case. Blood samples were collected before administration, and 1,3,5 and 7 hours after the administration. Plasma levels of zinc were determined using Zn Test Wako Kit (available from Wako Pure Chemical Industries, Ltd.). […] The bioavailability (BA) of zinc was calculated by the above comparison.
Using the same method as above, the bioavailability of zinc was determined at varying molar ratios of L-carnosine to zinc from zero to 30. The results are shown in FIG. 1 of the accompanying drawings.
The dose of a 1:1 molar mixture of L-carnosine and zinc acetate was varied from 3 mg/kg to 100 mg/kg in terms of zinc. Analogous to Part 1, AUCs and bioavalabilities were determined and compared with those of administration of zinc acetate alone. The results are shown in FIG. 2 of the accompanying drawing.

| BA (%) bioavailability of zinc (rat, in vivo) | Compound | absorption promoting action (in words) (rat, in vivo) | further results |
| --- | --- | --- | --- |
|  | NCCC(=O)N[C@H](Cc1cnc[nH]1)C(=O)O [D-carnosine] | not |  |
|  | NCCC(=O)N[C@@H](Cc1cnc[nH]1)C(=O)O [L-carnosine, N-β-alanyl-L-histidine] | exhibited a similar absorption promoting action | bioavailability of zinc at varying molar ratios of L-carnosine to zinc (FIG. 1) (rat, in vivo): increased with increase in the molar ratio |
|  | CC(=O)[O-].CC(=O)[O-].[Zn+2] [Zinc acetate] |  | BA (%) bioavailability of zinc (fasted Wistar rats, administered to the duodenum, 10 mg/kg as zinc, dipeptide:zinc 1:1, AUC up to 7 hours vs i.v. zinc acetate 1 mg/kg): 8.6 ± 0.3% |
| 6.7 ± 0.8% | D-carnosine zinc complex |  |  |
| 11.7 ± 0.4 % | L-carnosine zinc complex |  |  |
